Data taken from patent US20150176022A1, “HERBICIDE-RESISTANT SUNFLOWER PLANTS, POLYNUCLEOTIDES ENCODING HERBICIDE=RESISTANT ACETO HYDROXY ACID SYNTHASE LARGE SUBUNIT PROTEINS, AND METHODS OF USE” (priority 2013, published 2015).
“And” between values parts separate entries of the source, which are not always exact repeats. Identical values can stand only once.

Legend:
Assay type in all cases: in vivo, Helianthus annuus
[1] = test system: sunflower genotypes carrying the A122T mutation event; test: Greenhouse whole-plant imazapir dose response (Example 8), group mean; conditions: 14 DAT; for biomass, Dif with control (reduction), A122T / plant height, Dif with Control (height reduction), A122T / root dry weight, Dif with control (reduction), A122T: A122T mean; for biomass accumulation (% of untreated), Mean A122T / plant height (% of untreated), Mean A122T / root dry weight (% of untreated), Mean A122T: mean of six A122T genotypes; for Phytotoxicity Index, Mean A122T: mean of three A122T genotypes
Protocol: (§1) A greenhouse study was conducted to quantify and contrast the imazapir sensitivity of the mutants A122T and A205V in different genetic backgrounds at the whole plant level in sunflower. Seeds of the different sunflower lines that were used in this study were obtained under field conditions.
(§2) Seeds were sown in Petri dishes and, after germination, plantlets were transplanted to pots of 10 cm of diameter in a potting media consisting of equal parts of vermiculite, soil and sand. Plants were grown in a greenhouse under natural light conditions supplemented with 400 W sodium halide lamps to provide a 16 hrs daylength. Day/night temperatures were 25 and 20° C., respectively. At the V2 stage 10 plants of each genotype were randomly assigned to each treatment consisting of […] imazapir doses (0, 40, 80, 160, 240, 320, 400 and 480 g ai/ha), and a zero-time biomass determination. Experiment was arranged as a randomized block design with a full factorial (sunflower line×treatment) arrangement of treatments and 10 replications.
(§3) On the day of herbicide application ten plants of each genotype were cut at the cotyledonal node and dried at 60° C. for 48 hrs zero-time for dried weight determination. […] Height was determined as the distance between the cotyledonal node and the apex of each plant. For root biomass determination, each plant was taken from the pot and the potting media was washed out from the roots. Above ground biomass data from each line were converted to biomass accumulation after application by subtracting the appropriate average zero-time biomass from each sample. Dry biomass data were converted to percentages of the untreated control plants within each line to allow direct comparisons between groups.

[2] = test system: sunflower genotypes carrying the A205V mutation event; test: as above; conditions: 14 DAT; for biomass, Dif with control (reduction), A205V / plant height, Dif with Control (height reduction), A205V / root dry weight, Dif with control (reduction), A205V: A205V mean; for biomass accumulation (% of untreated), Mean A205V / root dry weight (% of untreated), Mean A205V / plant height (% of untreated), Mean A205V: mean of six A205V genotypes; for Phytotoxicity Index, Mean A205V: mean of three A205V genotypes
Protocol: as §1, §2, §3

[3] = test system: M2 plants of EMS-treated BTK47; test: Selection of imidazolinone-resistant M2 plants (Example 1); conditions: approximately 590,000 M2 plants sprayed at V2-V4 stage; 80 g ai/ha; greenhouse
Protocol: BTK47, a Helianthus annuus L. breeding line, was chemically mutated as follows. Sixty thousand seeds of the BTK47 line were treated with a solution of ethyl methanesulfonate (EMS) for 15 hours. The treated seeds were then sown under field conditions on Dec. 16, 2002 at Nidera Experimental Station in Venado Tuerto, Santa Fe, Argentina. Approximately 30,000 M1 plants flowered and were covered with bags in order to self-pollinate each plant. Each plant was harvested and threshed by hand. On May 10, 2003 at Nidera Experimental Station in Formosa, 20 M2 seeds from each capitulum were sown under greenhouse conditions. Approximately 590,000 plants were sprayed at V2-V4 stage with imazapyr at a rate of 80 g ai/ha. […] M3 seeds from each of these eight plants were evaluated for their resistance to imazapyr. Out of these eight M3 families, one family (S4897) segregated for herbicide resistance at a ratio of 1 resistant (i.e., conferring tolerance to commercial rates of imidazolinone herbicides): 2 intermediate (i.e., partially resistant): 1 susceptible. Fully fertile resistant plants were self pollinated and harvested in order to propagate the line S4897.

CC(C)C1(C)N=C(c2ncccc2C(=O)O)NC1=O (centres unmarked) [imazapir, imazapyr]
biomass, Dif with control (reduction), A122T ([1]; 0.5× (40 g ai/ha)): 1.1% | plant height, Dif with Control (height reduction), A122T ([1]; 0.5× (40 g ai/ha)): 0.6% | root dry weight, Dif with control (reduction), A122T ([1]; 0.5× (40 g ai/ha)): 0.1% | biomass, Dif with control (reduction), A122T ([1]; 1× (80 g ai/ha)): 3.2% | plant height, Dif with Control (height reduction), A122T ([1]; 1× (80 g ai/ha)): 1.4% | root dry weight, Dif with control (reduction), A122T ([1]; 1× (80 g ai/ha)): 2.5% | biomass, Dif with control (reduction), A122T ([1]; 2× (160 g ai/ha)): 5.1% | plant height, Dif with Control (height reduction), A122T ([1]; 2× (160 g ai/ha)): 2.7% | root dry weight, Dif with control (reduction), A122T ([1]; 2× (160 g ai/ha)): 5.9% | biomass, Dif with control (reduction), A122T ([1]; 3× (240 g ai/ha)): 7.2% | plant height, Dif with Control (height reduction), A122T ([1]; 3× (240 g ai/ha)): 4.4% | root dry weight, Dif with control (reduction), A122T ([1]; 3× (240 g ai/ha)): 10.6% | biomass, Dif with control (reduction), A122T ([1]; 4× (320 g ai/ha)): 12.2% | plant height, Dif with Control (height reduction), A122T ([1]; 4× (320 g ai/ha)): 6.3% | root dry weight, Dif with control (reduction), A122T ([1]; 4× (320 g ai/ha)): 18.6% | biomass, Dif with control (reduction), A122T ([1]; 5× (400 g ai/ha)): 20.7% | plant height, Dif with Control (height reduction), A122T ([1]; 5× (400 g ai/ha)): 10.2% | root dry weight, Dif with control (reduction), A122T ([1]; 5× (400 g ai/ha)): 21.3% | biomass, Dif with control (reduction), A122T ([1]; 6× (480 g ai/ha)): 25% and 25.4% | plant height, Dif with Control (height reduction), A122T ([1]; 6× (480 g ai/ha)): 15.8% | root dry weight, Dif with control (reduction), A122T ([1]; 6× (480 g ai/ha)): 38.3% | biomass accumulation (% of untreated), Mean A122T ([1]; 0.5× (40 g ai/ha)): 98.9% | plant height (% of untreated), Mean A122T ([1]; 0.5× (40 g ai/ha)): 99.4% | root dry weight (% of untreated), Mean A122T ([1]; 0.5× (40 g ai/ha)): 99.9% | biomass accumulation (% of untreated), Mean A122T ([1]; 1× (80 g ai/ha)): 96.8% | plant height (% of untreated), Mean A122T ([1]; 1× (80 g ai/ha)): 98.6% | root dry weight (% of untreated), Mean A122T ([1]; 1× (80 g ai/ha)): 97.5% | biomass accumulation (% of untreated), Mean A122T ([1]; 2× (160 g ai/ha)): 94.9% | plant height (% of untreated), Mean A122T ([1]; 2× (160 g ai/ha)): 97.3% | root dry weight (% of untreated), Mean A122T ([1]; 2× (160 g ai/ha)): 94.1% | biomass accumulation (% of untreated), Mean A122T ([1]; 3× (240 g ai/ha)): 92.8% | plant height (% of untreated), Mean A122T ([1]; 3× (240 g ai/ha)): 95.6% | root dry weight (% of untreated), Mean A122T ([1]; 3× (240 g ai/ha)): 89.4% | biomass accumulation (% of untreated), Mean A122T ([1]; 4× (320 g ai/ha)): 87.8% | plant height (% of untreated), Mean A122T ([1]; 4× (320 g ai/ha)): 93.7% | root dry weight (% of untreated), Mean A122T ([1]; 4× (320 g ai/ha)): 81.4% | biomass accumulation (% of untreated), Mean A122T ([1]; 5× (400 g ai/ha)): 79.3% | plant height (% of untreated), Mean A122T ([1]; 5× (400 g ai/ha)): 89.8% | root dry weight (% of untreated), Mean A122T ([1]; 5× (400 g ai/ha)): 78.7% | biomass accumulation (% of untreated), Mean A122T ([1]; 6× (480 g ai/ha)): 74.6% | plant height (% of untreated), Mean A122T ([1]; 6× (480 g ai/ha)): 84.2% | root dry weight (% of untreated), Mean A122T ([1]; 6× (480 g ai/ha)): 61.7% | Phytotoxicity Index, Mean A122T ([1]; 0.5× (40 g ai/ha)): 0.3 | Phytotoxicity Index, Mean A122T ([1]; 1× (80 g ai/ha)): 0.3 | Phytotoxicity Index, Mean A122T ([1]; 2× (160 g ai/ha)): 0.3 | Phytotoxicity Index, Mean A122T ([1]; 3× (240 g ai/ha)): 0.3 | Phytotoxicity Index, Mean A122T ([1]; 4× (320 g ai/ha)): 0.5 | Phytotoxicity Index, Mean A122T ([1]; 5× (400 g ai/ha)): 0.8 | Phytotoxicity Index, Mean A122T ([1]; 6× (480 g ai/ha)): 1.2 | biomass, Dif with control (reduction), A205V ([2]; 0.5× (40 g ai/ha)): 5.5% | plant height, Dif with Control (height reduction), A205V ([2]; 0.5× (40 g ai/ha)): 5.6% | root dry weight, Dif with control (reduction), A205V ([2]; 0.5× (40 g ai/ha)): 12.8% | biomass, Dif with control (reduction), A205V ([2]; 1× (80 g ai/ha)): 17.8% | plant height, Dif with Control (height reduction), A205V ([2]; 1× (80 g ai/ha)): 10.8% | root dry weight, Dif with control (reduction), A205V ([2]; 1× (80 g ai/ha)): 29.2% | biomass, Dif with control (reduction), A205V ([2]; 2× (160 g ai/ha)): 38.4% | plant height, Dif with Control (height reduction), A205V ([2]; 2× (160 g ai/ha)): 30.8% | root dry weight, Dif with control (reduction), A205V ([2]; 2× (160 g ai/ha)): 49.4% | biomass, Dif with control (reduction), A205V ([2]; 3× (240 g ai/ha)): 52.4% | plant height, Dif with Control (height reduction), A205V ([2]; 3× (240 g ai/ha)): 49.6% | root dry weight, Dif with control (reduction), A205V ([2]; 3× (240 g ai/ha)): 60.8% | biomass, Dif with control (reduction), A205V ([2]; 4× (320 g ai/ha)): 64.6% | plant height, Dif with Control (height reduction), A205V ([2]; 4× (320 g ai/ha)): 66.3% | root dry weight, Dif with control (reduction), A205V ([2]; 4× (320 g ai/ha)): 68.9% | biomass, Dif with control (reduction), A205V ([2]; 5× (400 g ai/ha)): 67.6% | plant height, Dif with Control (height reduction), A205V ([2]; 5× (400 g ai/ha)): 68.0% | root dry weight, Dif with control (reduction), A205V ([2]; 5× (400 g ai/ha)): 69.3% | biomass, Dif with control (reduction), A205V ([2]; 6× (480 g ai/ha)): 70.0% | plant height, Dif with Control (height reduction), A205V ([2]; 6× (480 g ai/ha)): 68.9% and 69.8% | root dry weight, Dif with control (reduction), A205V ([2]; 6× (480 g ai/ha)): 75.6% | biomass accumulation (% of untreated), Mean A205V ([2]; 0.5× (40 g ai/ha)): 94.5% | root dry weight (% of untreated), Mean A205V ([2]; 0.5× (40 g ai/ha)): 87.2% | biomass accumulation (% of untreated), Mean A205V ([2]; 1× (80 g ai/ha)): 82.2% | root dry weight (% of untreated), Mean A205V ([2]; 1× (80 g ai/ha)): 70.8% | biomass accumulation (% of untreated), Mean A205V ([2]; 2× (160 g ai/ha)): 61.6% | plant height (% of untreated), Mean A205V ([2]; 2× (160 g ai/ha)): 69.2% | root dry weight (% of untreated), Mean A205V ([2]; 2× (160 g ai/ha)): 50.6% | biomass accumulation (% of untreated), Mean A205V ([2]; 3× (240 g ai/ha)): 47.6% | plant height (% of untreated), Mean A205V ([2]; 3× (240 g ai/ha)): 50.4% | root dry weight (% of untreated), Mean A205V ([2]; 3× (240 g ai/ha)): 39.2% | biomass accumulation (% of untreated), Mean A205V ([2]; 4× (320 g ai/ha)): 35.4% | plant height (% of untreated), Mean A205V ([2]; 4× (320 g ai/ha)): 33.7% | root dry weight (% of untreated), Mean A205V ([2]; 4× (320 g ai/ha)): 31.1% | biomass accumulation (% of untreated), Mean A205V ([2]; 5× (400 g ai/ha)): 32.4% | plant height (% of untreated), Mean A205V ([2]; 5× (400 g ai/ha)): 32.0% | root dry weight (% of untreated), Mean A205V ([2]; 5× (400 g ai/ha)): 30.7% | biomass accumulation (% of untreated), Mean A205V ([2]; 6× (480 g ai/ha)): 30.0% | plant height (% of untreated), Mean A205V ([2]; 6× (480 g ai/ha)): 30.2% | root dry weight (% of untreated), Mean A205V ([2]; 6× (480 g ai/ha)): 24.4% | Phytotoxicity Index, Mean A205V ([2]; 2× (160 g ai/ha)): 2.2 | Phytotoxicity Index, Mean A205V ([2]; 3× (240 g ai/ha)): 5.1 | Phytotoxicity Index, Mean A205V ([2]; 4× (320 g ai/ha)): 7.4 | Phytotoxicity Index, Mean A205V ([2]; 5× (400 g ai/ha)): 8.2 | Phytotoxicity Index, Mean A205V ([2]; 6× (480 g ai/ha)): 8.2 | plants surviving the herbicide treatment [3]: Eight plants survived
